Assay results: ChEMBL document CHEMBL5724562, “Toxicity screen in isolated B cell assay results for EUbOPEN Chemogenomics Library” (2024)
Non-standard residues stand in square brackets, D forms with d. Residues, ends and D or L forms follow the SMILES beside them. *: point of attachment. dPhe(4-NHCONH2) = NC(=O)Nc1ccc(C[C@@H](N)C(=O)O)cc1; Dihydroorotyl(S) = O=C1C[C@@H](C(=O)*)NC(=O)N1; dPhe(4-Cl) = N[C@H](Cc1ccc(Cl)cc1)C(=O)O; Phe(4-NH2) = Nc1ccc(C[C@H](N)C(=O)O)cc1; d2Nal = N[C@H](Cc1ccc2ccccc2c1)C(=O)O; Lys(iPr) = CC(C)NCCCC[C@H](N)C(=O)O; d3Pal = N[C@H](Cc1cccnc1)C(=O)O

Test system: B cell
Assay: Cytotoxicity screening of chemical probes in isolated B cell assay. Data is normalized to DMSO control, the cell viability average of replicates are reported. Reduction of ATP level more than 20% indicate compromised cell health status.
Details: human, 0.1 µM

Point of comparison: `O[C@]1(C(F)(F)F)CCCC[C@H]1Nc1ccc(F)cc1` [BAY-390], “Cell Viability” value 101.834%. Against it:
- CN(C)C(=O)Cn1cc(-c2nc([C@@](C)(c3ccc(-c4cnc(N)nc4)cc3)C3CC3)no2)cn1 [BI 665915] — higher, 103.286%
- CCCCN(CCCC)C(=O)CN1C[C@H](c2cc(OC)c3c(c2)OCO3)[C@@H](C(=O)O)[C@@H]1CC(C)(C)CCC.Cc1ccc(S(=O)(=O)O)cc1 — lower, 100.019%
- CS(=O)(=O)N1CCCC(NC(=O)[C@H](CCC2CCCCC2)NC(=O)c2ccc(CNC(=O)c3cnc4ccccn34)cc2)C1 (stereo not given in full) [SR-302] — lower, 99.1038%
- CNC(=O)Nc1ccc2c(c1)CC[C@@]21OC(=O)N(CC(=O)N(Cc2ccc(F)cc2)[C@@H](C)C(F)(F)F)C1=O [A-485] — lower, 92.4439%
- CNC(=O)c1ccc(Nc2ncc(C(F)(F)F)c(NCc3nccnc3N(C)S(C)(=O)=O)n2)cc1 [DEFACTINIB] — higher, 103.534%
- COc1cccc(CNC(=O)c2nc3scc(COCc4ccc(C(=O)O)cc4)c3c(=O)[nH]2)c1 [T-26c] — higher, 102.037%
- CN1C(=O)[C@@H](N2CCc3c(nn(Cc4ccccc4)c3Br)C2=O)COc2ccccc21 [TP-030-2] — lower, 101.749%
- O=S(=O)(NC1CCC(c2cc(F)ccc2F)(S(=O)(=O)c2ccc(Cl)cc2)CC1)C(F)(F)F (stereo not given) [MRK-560] — higher, 103.093%

Same assay, conditions: human, 1 µM

Point of comparison: `C[C@@H](OC[C@@]1(c2ccccc2)CC[C@]2(CCC(=O)N2)CN1)c1cc(C(F)(F)F)cc(C(F)(F)F)c1` [ROLAPITANT], “Cell Viability” value 97.3629%. Against it:
- COc1ccccc1C(=O)Nc1cc2c(cc1N1CCCC1)n(C)c(=O)n2C — higher, 98.47%
- Cc1cc(Cn2cnc3c2C[C@@H](C(=O)O)N(C(=O)C(c2ccccc2)c2ccccc2)C3)ccc1N(C)C — higher, 100.94%
- CSc1cc2c(cc1C(F)(F)F)N(C(=O)Nc1cccnc1)CC2 — higher, 99.9626%
- COc1ccc2c(c1)O[C@@H](c1ccc(OC)c(OC)c1)C[C@H]2NC(=O)C1(c2ccc3c(c2)OC(F)(F)O3)CC1 [A-1596586] — higher, 101.385%
- COc1cc(Nc2ccnc3ccc(Br)cc23)cc(OC)c1OC — lower, 95.869%
- Cn1cc(-c2ccc3occ(-c4cccc(-c5ccncc5)c4)c3n2)cn1 — higher, 101.775%
- CC1=C(C#N)C(c2ccc3[nH]nc(C)c3c2)C(C#N)=C(C)N1 [BAY-474] — lower, 96.499%
- COc1cc(C(=O)N2CC[C@@H](O)[C@@H](N)C2)cc2nc(-c3cc4ccccc4n3CC3CC3)n(C)c12.Cl — lower, 96.5784%
- COc1cc2c(NC3CCN(C(C)C)CC3)nc(N3CCC(F)(F)CC3)nc2cc1OCCCN1CCCC1 — higher, 98.4898%
- CC(=O)Nc1cccc(-n2c(=O)n(C3CC3)c(=O)c3c(Nc4ccc(I)cc4F)n(C)c(=O)c(C)c32)c1 [TRAMETINIB] — lower, 85.5796%
- Cc1cc(=O)n(C)c2cc(N3C(=O)CC[C@H](NS(=O)(=O)CC(C)C)[C@H]3c3ccc(Cl)cc3)ccc12 — higher, 97.6321%
- CCOC(=O)CCNc1cc(N2CCc3ccccc3CC2)nc(-c2ccccn2)n1 — lower, 95.6308%
- Cc1ccc2nc(CNCCCOc3ccccc3)cc(O)c2c1 [UCSF924] — lower, 96.7712%
- Cc1sc2c(c1C)C(c1ccc(Cl)cc1)=N[C@@H](CC(=O)OC(C)(C)C)c1nnc(C)n1-2 — lower, 83.2653%
- N#CC1(c2ccccn2)CCN(Cc2cc(C(=O)O)c(=O)n3ccccc23)CC1 [MSD-M1PAM] — higher, 98.7103%
- COc1cc(-c2cn(C)c(=O)c3cnccc23)c(OC)cc1CN(C)C — lower, 95.7323%
- Cc1ccc(Cn2nc(C(=O)N[C@@H]3C(C)(C)[C@@H]4CC[C@@]3(C)C4)cc2-c2ccc(Cl)c(C)c2)cc1 — lower, 95.8945%
- CCCCN(Cc1ccccc1)C(=O)c1ccc(S(=O)(=O)Nc2ccccc2)cc1 — higher, 99.9127%
- CN(C)[C@@H]1CCN(c2cc(-c3ccccc3)nc3ccnn23)C1 [(R)-ZINC-3573] — higher, 100.756%
- C[C@]12N[C@H](Cc3ccccc31)c1ccccc12 [DIZOCILPINE] — higher, 102.296%
- Cc1c(N2CCCC2)nc2ccc(Br)cc2c1C(=O)NC[C@H](CCC(=O)O)c1ccccc1Cl [BAY-6672] — higher, 98.0293%
- CCC(=O)N[C@H]1CC[C@@H](C(=O)N(C)c2ccc(-c3nc4ccccc4o3)cc2)C1 [BI 99179] — higher, 102.234%
- CCc1nc2c(C)cc(C)nc2[nH]1 — higher, 100.659%
- CCCn1c(=O)c2[nH]c(C3CCCC3)nc2n(CCC)c1=O [1,3-DIPROPYL-8-CYCLOPENTYLXANTHINE [DPCPX]] — higher, 101.399%
- Nc1nc(NCc2ccccc2)nc(-c2ccccc2CO)n1 [Ogerin] — higher, 100.729%
- COc1ccc(C(=O)N2CCN(C(=O)/C=C/c3ccc(Br)cc3)CC2)cc1 — higher, 97.705%
- O=C(NCCN1CCOCC1)c1ccc2c(c1)C(=O)c1ccc(Nc3ccc(F)c(NC(=O)c4ccccc4)c3)cc1CC2 [FS-694] — lower, 91.9931%
- O=C(Nc1cccnn1)N1CCC(=Cc2cccc(Oc3ccc(C(F)(F)F)cn3)c2)CC1 — higher, 98.4854%
- COc1cc(Nc2nccc(-c3cnn4nc(OC)ccc34)n2)cc(C(F)(F)F)c1 — lower, 93.0077%
- CO[C@H]1CC[C@H](CNc2ccc(S(=O)(=O)NC(=O)c3ccc(N4CCN(CC5=C(c6ccc(Cl)cc6)CC(C)(C)CC5)CC4)cc3Oc3cnc4[nH]ccc4c3)cc2[N+](=O)[O-])CC1 [A-1211212] — lower, 88.4422%
- CC#C[C@@H](CC(=O)O)c1ccc(OCc2cccc(-c3ccc(C(F)(F)F)cc3)c2)cc1 — lower, 93.0276%
- CC(=O)c1cc(-c2cc(C(=O)NC3CC3)ccc2C)c2ncccn12 — lower, 95.0596%
- O=S(=O)(c1ccccc1)c1cnc2c(N3CCNCC3)cccc2c1 [INTEPIRDINE] — higher, 101.733%
- CC1(C)C(N)=Nc2cc(OCCCN3Cc4ccc(OCCc5cn(CC(=O)N6CCC(CCN7CCCC7)CC6)nn5)cc4C3)c(OCC3CC3)cc21 — lower, 92.0303%
- CN(C)CC#Cc1ccc(OCCCc2sc(N3CCc4cccc(C(=O)Nc5nc6ccccc6s5)c4C3)nc2C(=O)O)c(F)c1 [A-1155463] — lower, 88.7648%
- Cc1nc[nH]c1CCN.Cl — higher, 99.4273%
- COc1cc(C#N)ccc1S(=O)(=O)Nc1ccc2c(c1)cc(C)c(=O)n2C — higher, 99.4263%
- CC(=O)Nc1c(F)cc(C(=O)N[C@H]2CC[C@H](O)CC2)cc1O[C@@H](C)c1ccccc1 [GSK046] — lower, 96.5866%
- C[C@H]1CCCN1Cc1nc2cc(NC(=O)c3ccc4cnccc4c3)ccc2[nH]1 — lower, 90.4338%
- CC(=O)N[C@H](Cc1ccc2ccccc2c1)C(=O)N[C@H](Cc1ccc(Cl)cc1)C(=O)N[C@H](Cc1cccnc1)C(=O)N[C@@H](CO)C(=O)N[C@@H](Cc1ccc(NC(=O)[C@@H]2CC(=O)NC(=O)N2)cc1)C(=O)N[C@H](Cc1ccc(NC(N)=O)cc1)C(=O)N[C@@H](CC(C)C)C(=O)N[C@@H](CCCCNC(C)C)C(=O)N1CCC[C@H]1C(=O)N[C@H](C)C(N)=O [DEGARELIX] (Ac-[d2Nal][dPhe(4-Cl)][d3Pal]S[Phe(4-NH2)](Dihydroorotyl(S))[dPhe(4-NHCONH2)]L[Lys(iPr)]P[dA]-NH2) — higher, 102.434%
- C[C@@H](NC(=O)Nc1cc2[nH]ncc2c(CO)n1)c1ccccc1 [ERKi] — lower, 88.9841%
- O=C(c1ccc(C(=O)N2CCC(N3CCCC3)CC2)c(Nc2ccccc2)c1)N1CCC(N2CCCC2)CC1 — lower, 93.0388%
- CCN(C(=O)CO)[C@H]1CN(/C(=N\C#N)Nc2cccc(OC(F)F)c2)N=C1c1ccc(Cl)c(Cl)c1 — higher, 100.495%
- c1ccc2oc(-c3csc(C4CCN(Cc5nc6ncccc6[nH]5)CC4)n3)cc2c1 — lower, 83.0928%
- Cc1cc(OCCCS(C)(=O)=O)cc(C)c1-c1cccc(COc2ccc3c(c2)OC[C@H]3CC(=O)O)c1 — higher, 101.968%
- C[C@H]1CC(=O)Nc2cc(C(=O)NCCC3CC3)ccc2N1C(=O)N1CC2CC2C1 (stereo not given in full) — higher, 100.735%
- CC(=O)N1CCC(c2ccc(C(=O)NC(=N)N)cc2C(F)(F)F)CC1 [BI 9627] — lower, 95.0864%
- CN1CCN(c2ccc(-c3cccc(CN4CCOCC4)c3)cc2NC(=O)c2c[nH]c(=O)cc2C(F)(F)F)CC1 — higher, 99.6552%
- CCNC1(C(N)=O)CCN(c2ncnc3c2nc(-c2ccccc2Cl)n3-c2ccc(Cl)cc2)CC1 [OTENABANT] — higher, 101.882%
- Cl.Cl.Cl.c1ccc(N2CCN(Cc3nc4ccccc4[nH]3)CC2)nc1 — higher, 98.1024%
- Cc1cc(-n2nc(Cc3cc(F)cc(C(F)(F)F)c3)nc2C)ccc1C(N)=O [TP-024] — higher, 100.697%
- Cc1c(C(=O)NN2CCCCC2)nn(-c2ccc(Cl)cc2Cl)c1-c1ccc(Cl)cc1 [RIMONABANT] — higher, 99.45%
- Cc1[nH]cnc1CN1CCc2c(c3ccccc3n2C)C1=O [ALOSETRON] — higher, 98.6661%
- Cc1nc(N2CC[C@H](O)C2)ncc1-c1cc(C(F)(F)F)cc2[nH]ncc12 — higher, 99.9461%
- CN([C@@H]1CCc2c(CC(=O)O)c3ccccc3n2C1)S(=O)(=O)c1ccc(F)cc1 [MK-7246] — lower, 96.8838%
- O=C(NCc1ccc(F)cc1)N1CCN2C(=O)OC(c3ccccc3)(c3ccccc3)C2C1 (stereo not given) — higher, 104.95%
- COc1ccc(CCc2nc3cc(-c4c(C)noc4C)ccc3n2C[C@H](C)N2CCOCC2)cc1Cl — lower, 94.0053%
- Cl.Cl.NC1(c2ccc(-c3nc4ccn5c(=O)[nH]nc5c4cc3-c3ccccc3)cc2)CCC1 — lower, 85.9288%
- COc1ccccc1C(=O)Nc1cc2c(cc1N1CCNCC1C)n(C)c(=O)n2C (stereo not given) — higher, 98.4804%
- Cc1c(NC(=O)c2cc(C(N)=O)nc3cc(F)ccc23)c(C(F)(F)F)nn1Cc1ccc(C#N)cc1 [BAY-876] — higher, 101.62%
- CC(C)NC(=O)N1CC[C@H](NC2=Nc3cc(F)ccc3N(CC(F)F)c3ccc(Cl)cc32)C1 — higher, 98.1837%
- O=C(NCC(=O)N1CCCC1)Nc1ccc2cnccc2c1 — higher, 100.263%
- CCN(CCO)CCCOc1ccc2c(Nc3cc(CC(=O)Nc4cccc(F)c4)[nH]n3)ncnc2c1 [DEFOSBARASERTIB] — higher, 100.387%
- CCOC(=O)Nc1cc(-c2ccc(C)c(NS(C)(=O)=O)c2)nn2c(C)nnc12 — lower, 84.5677%
- CCCOc1ccn2c(C(C)=O)cc(-c3ccccc3S(C)(=O)=O)c2c1 — higher, 98.3118%
